Reference: ChEMBL document CHEMBL5715954, “Silencing c-Myc translation as a therapeutic strategy through targeting PI3Kδ and CK1ε in hematological malignancies” (Blood, 2017)

How the values were obtained:
Parameters in all cases: scale not given: the % may be the effect or the level left
[1] = biological target: Insulin-like growth factor 1 receptor (Homo sapiens) (UniProt P08069); experiment: Inhibition of human IGF1R assessed as enzyme activity at 1 uM using KKKSPGEYVNIEFG as substrate preincubated for 20 mins followed by [gamma-33P]-ATP addition and measured after 120 mins by radiometric Hot-SpotSM Kinase assay relative to control
[2] = biological target: Serine/threonine-protein kinase/endoribonuclease IRE2 (Homo sapiens) (UniProt Q76MJ5); experiment: Inhibition of human ERN2/IRE2 assessed as enzyme activity at 1 uM using myelin basic protein as substrate preincubated for 20 mins followed by [gamma-33P]-ATP addition and measured after 120 mins by radiometric Hot-SpotSM Kinase assay relative to control
[3] = biological target: Calcium/calmodulin-dependent protein kinase type II subunit delta (Homo sapiens) (UniProt Q13557); experiment: Inhibition of human CAMK2d assessed as enzyme activity at 1 uM using KKLNRTLSFAEPG as substrate preincubated for 20 mins followed by [gamma-33P]-ATP addition and measured after 120 mins by radiometric Hot-SpotSM Kinase assay relative to control
[4] = biological target: Dual specificity testis-specific protein kinase 1 (Homo sapiens) (UniProt Q15569); experiment: Inhibition of human TESK1 assessed as enzyme activity at 1 uM using cofilin 2 as substrate preincubated for 20 mins followed by [gamma-33P]-ATP addition and measured after 120 mins by radiometric Hot-SpotSM Kinase assay relative to control
[5] = biological target: T1, Dual specificity mitogen-activated protein kinase kinase 3 (Homo sapiens) (UniProt P46734); experiment: Inhibition of human MEK3 assessed as enzyme activity at 1 uM using p38a (K53A) as substrate preincubated for 20 mins followed by [gamma-33P]-ATP addition and measured after 120 mins by radiometric Hot-SpotSM Kinase assay relative to control
T1 sequence (whole entry): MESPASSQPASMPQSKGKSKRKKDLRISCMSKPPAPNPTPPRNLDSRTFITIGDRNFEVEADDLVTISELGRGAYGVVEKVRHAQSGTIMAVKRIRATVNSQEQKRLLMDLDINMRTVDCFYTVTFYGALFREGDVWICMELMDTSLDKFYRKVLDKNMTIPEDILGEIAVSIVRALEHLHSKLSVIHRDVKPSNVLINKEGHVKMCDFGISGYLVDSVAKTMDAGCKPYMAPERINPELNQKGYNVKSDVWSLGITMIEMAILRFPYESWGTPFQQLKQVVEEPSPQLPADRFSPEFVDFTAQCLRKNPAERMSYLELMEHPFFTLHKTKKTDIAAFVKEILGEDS

[6] = biological target: CDK18/Cyclin Y (Homo sapiens) (UniProt Q07002+Q8ND76); experiment: Inhibition of human CDK18/cyclin Y assessed as enzyme activity at 1 uM using RB Protein as substrate preincubated for 20 mins followed by [gamma-33P]-ATP addition and measured after 120 mins by radiometric Hot-SpotSM Kinase assay relative to control; assay type: protein-complex assay
[7] = biological target: T2, Tyrosine-protein kinase ITK/TSK (Homo sapiens) (UniProt Q08881); experiment: Inhibition of human ITK assessed as enzyme activity at 1 uM using myelin basic protein as substrate preincubated for 20 mins followed by [gamma-33P]-ATP addition and measured after 120 mins by radiometric Hot-SpotSM Kinase assay relative to control
T2 sequence (whole entry): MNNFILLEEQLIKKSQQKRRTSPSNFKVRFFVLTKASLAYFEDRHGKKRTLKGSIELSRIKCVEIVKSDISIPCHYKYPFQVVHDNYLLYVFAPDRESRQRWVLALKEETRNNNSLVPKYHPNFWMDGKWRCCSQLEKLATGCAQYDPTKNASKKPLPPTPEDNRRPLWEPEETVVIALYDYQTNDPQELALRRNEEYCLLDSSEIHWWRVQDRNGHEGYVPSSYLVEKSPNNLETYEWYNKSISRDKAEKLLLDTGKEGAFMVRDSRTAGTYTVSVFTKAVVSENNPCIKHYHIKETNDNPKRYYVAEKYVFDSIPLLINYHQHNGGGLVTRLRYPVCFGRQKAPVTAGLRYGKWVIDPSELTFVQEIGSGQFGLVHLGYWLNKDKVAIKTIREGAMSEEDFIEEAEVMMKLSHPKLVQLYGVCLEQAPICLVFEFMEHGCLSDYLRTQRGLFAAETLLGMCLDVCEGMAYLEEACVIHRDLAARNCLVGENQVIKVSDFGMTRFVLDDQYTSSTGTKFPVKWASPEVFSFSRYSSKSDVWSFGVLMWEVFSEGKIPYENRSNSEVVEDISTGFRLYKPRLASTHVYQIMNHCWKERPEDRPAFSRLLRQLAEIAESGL

[8] = biological target: Serine/threonine-protein kinase Nek7 (Homo sapiens) (UniProt Q8TDX7); experiment: Inhibition of human NEK7 assessed as enzyme activity at 1 uM using casein as substrate preincubated for 20 mins followed by [gamma-33P]-ATP addition and measured after 120 mins by radiometric Hot-SpotSM Kinase assay relative to control
[9] = biological target: Serine/threonine-protein kinase Nek6 (Homo sapiens) (UniProt Q9HC98); experiment: Inhibition of human NEK6 assessed as enzyme activity at 1 uM using casein as substrate preincubated for 20 mins followed by [gamma-33P]-ATP addition and measured after 120 mins by radiometric Hot-SpotSM Kinase assay relative to control
[10] = biological target: T3, Serine/threonine-protein kinase 17A (Homo sapiens) (UniProt Q9UEE5); experiment: Inhibition of human DRAK1/STK17A assessed as enzyme activity at 1 uM using KKLNRTLSFAEPG as substrate preincubated for 20 mins followed by [gamma-33P]-ATP addition and measured after 120 mins by radiometric Hot-SpotSM Kinase assay relative to control
T3 sequence (whole entry): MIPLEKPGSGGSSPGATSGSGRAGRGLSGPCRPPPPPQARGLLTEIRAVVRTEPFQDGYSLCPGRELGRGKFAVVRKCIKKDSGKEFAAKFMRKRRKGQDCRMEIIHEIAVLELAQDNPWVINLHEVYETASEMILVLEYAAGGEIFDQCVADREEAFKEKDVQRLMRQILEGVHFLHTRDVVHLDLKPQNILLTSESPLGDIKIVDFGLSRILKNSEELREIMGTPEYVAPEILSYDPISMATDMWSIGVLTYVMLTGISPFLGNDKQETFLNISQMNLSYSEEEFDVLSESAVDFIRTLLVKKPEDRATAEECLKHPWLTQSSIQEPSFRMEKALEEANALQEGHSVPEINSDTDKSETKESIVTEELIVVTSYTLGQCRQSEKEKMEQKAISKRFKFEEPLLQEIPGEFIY

[11] = biological target: Protein kinase C alpha type (Homo sapiens) (UniProt P17252); experiment: Inhibition of human PKCa assessed as enzyme activity at 1 uM using ERMRPRKRQGSVRRRV as substrate preincubated for 20 mins followed by [gamma-33P]-ATP addition and measured after 120 mins by radiometric Hot-SpotSM Kinase assay relative to control

Chain of Serine/threonine-protein kinase Nek6 (Homo sapiens) (Q9HC98 whole entry): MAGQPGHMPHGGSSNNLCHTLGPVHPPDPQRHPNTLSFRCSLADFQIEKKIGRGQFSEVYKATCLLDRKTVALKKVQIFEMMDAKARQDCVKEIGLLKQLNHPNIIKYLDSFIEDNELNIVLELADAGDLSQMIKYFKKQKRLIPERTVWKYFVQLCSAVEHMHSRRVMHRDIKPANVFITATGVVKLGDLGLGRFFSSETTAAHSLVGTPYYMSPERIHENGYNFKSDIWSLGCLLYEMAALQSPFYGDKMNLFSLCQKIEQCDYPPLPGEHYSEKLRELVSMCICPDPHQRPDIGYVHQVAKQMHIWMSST
Chain of Serine/threonine-protein kinase/endoribonuclease IRE2 (Homo sapiens) (Q76MJ5 35-926 limits assumed): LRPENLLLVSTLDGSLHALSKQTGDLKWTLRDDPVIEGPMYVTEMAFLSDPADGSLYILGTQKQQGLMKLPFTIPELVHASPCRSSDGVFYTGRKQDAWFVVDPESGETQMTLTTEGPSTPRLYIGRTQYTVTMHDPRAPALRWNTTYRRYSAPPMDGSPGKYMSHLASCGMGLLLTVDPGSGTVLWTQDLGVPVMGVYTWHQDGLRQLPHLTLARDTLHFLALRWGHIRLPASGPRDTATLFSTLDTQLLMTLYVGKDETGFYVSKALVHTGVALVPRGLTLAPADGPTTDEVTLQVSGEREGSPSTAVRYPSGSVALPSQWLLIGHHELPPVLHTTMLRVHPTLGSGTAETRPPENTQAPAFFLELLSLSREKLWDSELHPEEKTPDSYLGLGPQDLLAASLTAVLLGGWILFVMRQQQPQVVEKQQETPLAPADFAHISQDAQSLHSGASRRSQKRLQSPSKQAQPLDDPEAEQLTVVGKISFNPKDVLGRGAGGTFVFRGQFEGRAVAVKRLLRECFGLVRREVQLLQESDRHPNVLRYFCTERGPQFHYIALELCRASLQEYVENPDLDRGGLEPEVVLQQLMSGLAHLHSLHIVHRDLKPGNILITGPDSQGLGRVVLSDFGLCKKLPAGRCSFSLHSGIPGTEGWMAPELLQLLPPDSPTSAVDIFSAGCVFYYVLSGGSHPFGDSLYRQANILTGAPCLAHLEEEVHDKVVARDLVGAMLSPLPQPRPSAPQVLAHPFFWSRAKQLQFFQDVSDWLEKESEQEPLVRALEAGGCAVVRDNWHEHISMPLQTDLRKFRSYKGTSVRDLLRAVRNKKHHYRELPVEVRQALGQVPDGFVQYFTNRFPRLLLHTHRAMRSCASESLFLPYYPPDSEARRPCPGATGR
Chain of Insulin-like growth factor 1 receptor (Homo sapiens) (P08069 31-736 limits assumed): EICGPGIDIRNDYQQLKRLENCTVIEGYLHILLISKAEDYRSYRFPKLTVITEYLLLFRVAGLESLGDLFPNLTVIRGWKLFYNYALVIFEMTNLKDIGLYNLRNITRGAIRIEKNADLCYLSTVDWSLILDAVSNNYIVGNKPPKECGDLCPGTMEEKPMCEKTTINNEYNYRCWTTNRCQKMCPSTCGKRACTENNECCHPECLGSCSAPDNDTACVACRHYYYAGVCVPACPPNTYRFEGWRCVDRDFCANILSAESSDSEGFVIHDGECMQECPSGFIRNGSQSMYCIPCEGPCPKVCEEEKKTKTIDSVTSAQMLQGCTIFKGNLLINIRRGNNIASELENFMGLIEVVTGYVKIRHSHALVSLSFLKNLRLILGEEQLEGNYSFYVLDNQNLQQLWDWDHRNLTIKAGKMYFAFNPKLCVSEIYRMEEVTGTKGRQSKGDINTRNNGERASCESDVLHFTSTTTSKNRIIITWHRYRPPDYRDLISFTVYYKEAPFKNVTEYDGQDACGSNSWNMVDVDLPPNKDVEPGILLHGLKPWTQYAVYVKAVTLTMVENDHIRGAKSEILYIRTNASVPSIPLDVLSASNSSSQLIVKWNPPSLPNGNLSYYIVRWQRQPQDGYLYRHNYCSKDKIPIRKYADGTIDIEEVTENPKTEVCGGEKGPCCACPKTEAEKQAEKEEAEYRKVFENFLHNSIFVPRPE
Chain of Insulin-like growth factor 1 receptor (Homo sapiens) (P08069 741-1367 limits assumed): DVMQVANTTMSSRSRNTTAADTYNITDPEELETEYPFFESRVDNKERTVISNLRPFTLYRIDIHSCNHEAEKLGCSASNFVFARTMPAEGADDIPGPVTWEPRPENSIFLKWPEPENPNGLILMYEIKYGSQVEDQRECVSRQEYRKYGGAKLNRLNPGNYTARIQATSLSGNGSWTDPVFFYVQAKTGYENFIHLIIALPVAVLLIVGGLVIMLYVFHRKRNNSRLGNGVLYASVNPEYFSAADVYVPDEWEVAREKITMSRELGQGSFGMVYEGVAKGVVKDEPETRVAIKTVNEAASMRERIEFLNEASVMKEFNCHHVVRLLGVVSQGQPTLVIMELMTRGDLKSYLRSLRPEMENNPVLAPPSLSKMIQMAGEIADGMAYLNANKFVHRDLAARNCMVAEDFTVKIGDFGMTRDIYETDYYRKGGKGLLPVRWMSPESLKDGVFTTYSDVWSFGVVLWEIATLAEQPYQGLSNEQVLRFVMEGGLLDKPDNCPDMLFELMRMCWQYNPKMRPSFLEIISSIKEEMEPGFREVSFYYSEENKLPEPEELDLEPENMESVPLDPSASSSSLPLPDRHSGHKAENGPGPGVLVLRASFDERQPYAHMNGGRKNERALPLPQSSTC
Chain of Serine/threonine-protein kinase Nek7 (Homo sapiens) (Q8TDX7 whole entry, looked up): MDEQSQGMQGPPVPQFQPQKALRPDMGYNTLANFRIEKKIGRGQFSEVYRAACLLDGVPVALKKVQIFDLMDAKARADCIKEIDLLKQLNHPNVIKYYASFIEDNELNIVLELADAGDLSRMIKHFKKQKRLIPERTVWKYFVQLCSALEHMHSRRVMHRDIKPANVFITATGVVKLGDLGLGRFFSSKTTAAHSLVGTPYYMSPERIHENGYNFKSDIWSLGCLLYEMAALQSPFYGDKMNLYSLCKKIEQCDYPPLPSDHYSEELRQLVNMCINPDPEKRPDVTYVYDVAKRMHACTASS
Chain of Calcium/calmodulin-dependent protein kinase type II subunit delta (Homo sapiens) (Q13557 whole entry): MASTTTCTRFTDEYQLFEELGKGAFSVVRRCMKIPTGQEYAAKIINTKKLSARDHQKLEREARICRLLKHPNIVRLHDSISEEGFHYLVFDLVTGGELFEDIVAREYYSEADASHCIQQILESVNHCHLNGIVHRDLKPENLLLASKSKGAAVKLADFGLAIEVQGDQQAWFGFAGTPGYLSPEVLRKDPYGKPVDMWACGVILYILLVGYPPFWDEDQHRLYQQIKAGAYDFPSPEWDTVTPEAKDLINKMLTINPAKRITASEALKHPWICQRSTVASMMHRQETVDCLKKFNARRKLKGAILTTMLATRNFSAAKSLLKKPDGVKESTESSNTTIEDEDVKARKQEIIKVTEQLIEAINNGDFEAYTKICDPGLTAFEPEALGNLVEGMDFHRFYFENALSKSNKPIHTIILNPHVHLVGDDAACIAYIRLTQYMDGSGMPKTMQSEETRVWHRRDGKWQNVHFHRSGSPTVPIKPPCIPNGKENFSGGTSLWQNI
Chain of Dual specificity testis-specific protein kinase 1 (Homo sapiens) (Q15569 whole entry, looked up): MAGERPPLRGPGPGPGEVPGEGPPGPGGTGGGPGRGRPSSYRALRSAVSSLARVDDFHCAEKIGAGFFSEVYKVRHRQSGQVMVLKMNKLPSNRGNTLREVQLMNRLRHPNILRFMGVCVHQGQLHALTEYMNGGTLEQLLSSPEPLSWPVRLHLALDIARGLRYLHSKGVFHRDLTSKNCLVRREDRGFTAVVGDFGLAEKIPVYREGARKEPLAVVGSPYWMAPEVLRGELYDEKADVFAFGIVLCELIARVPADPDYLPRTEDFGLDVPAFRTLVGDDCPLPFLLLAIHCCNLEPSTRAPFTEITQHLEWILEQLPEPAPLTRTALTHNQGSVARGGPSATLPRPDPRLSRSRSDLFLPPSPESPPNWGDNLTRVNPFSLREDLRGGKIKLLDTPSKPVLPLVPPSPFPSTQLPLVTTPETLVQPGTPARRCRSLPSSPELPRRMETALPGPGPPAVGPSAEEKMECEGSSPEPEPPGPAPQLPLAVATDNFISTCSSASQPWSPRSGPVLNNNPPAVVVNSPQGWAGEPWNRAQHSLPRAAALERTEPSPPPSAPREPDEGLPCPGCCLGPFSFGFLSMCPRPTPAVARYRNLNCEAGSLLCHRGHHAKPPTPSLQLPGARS

CC[C@H](Nc1ncnc2[nH]cnc12)c1nc2cccc(F)c2c(=O)n1-c1ccccc1
Activity [1]: 91.5%
Activity [2]: 100%
Activity [3]: 107%
Activity [4]: 98.7%
Activity [5]: 108%
Activity [6]: 85.7%
Activity [7]: 102%
Activity [8]: 97.3%
Activity [9]: 93.2%
Activity [10]: 95.1%
Activity [11]: 103%

C[C@H](Nc1ncnc2nc[nH]c12)c1cc2cccc(Cl)c2c(=O)n1-c1ccccc1
Activity [1]: 102%
Activity [2]: 96.5%
Activity [3]: 104%
Activity [4]: 102%
Activity [5]: 108%
Activity [6]: 100%
Activity [7]: 94.5%
Activity [8]: 100%
Activity [9]: 92.6%
Activity [10]: 95.4%
Activity [11]: 116%

CC(C)Oc1ccc(-c2nn([C@@H](C)c3oc4ccc(F)cc4c(=O)c3-c3cccc(F)c3)c3ncnc(N)c23)cc1F [UMBRALISIB]
Activity [1]: 96.5%
Activity [2]: 98.3%
Activity [3]: 103%
Activity [4]: 98%
Activity [5]: 105%
Activity [6]: 94.6%
Activity [7]: 97.3%
Activity [8]: 85.4%
Activity [9]: 97.7%
Activity [10]: 92.4%
Activity [11]: 114%
